Test results: US20240116985A1, “STAPLED PEPTIDES AND METHODS THEREOF” (priority 2020, published 2024)
Like-named read-outs stand apart in the source and are kept apart here.

Experiments:
[1] = target: T1, full-length beta-Catenin (Uniprot ID P35222) (Homo sapiens, UniProt P35222); assay: Fluorescence polarization IC50 (beta-catenin / 5FAM-TCF4 10-53 competition); type: binding
T1 construct: 10 nM full-length beta-Catenin (Uniprot ID P35222)
T1 sequence (P35222 1-781): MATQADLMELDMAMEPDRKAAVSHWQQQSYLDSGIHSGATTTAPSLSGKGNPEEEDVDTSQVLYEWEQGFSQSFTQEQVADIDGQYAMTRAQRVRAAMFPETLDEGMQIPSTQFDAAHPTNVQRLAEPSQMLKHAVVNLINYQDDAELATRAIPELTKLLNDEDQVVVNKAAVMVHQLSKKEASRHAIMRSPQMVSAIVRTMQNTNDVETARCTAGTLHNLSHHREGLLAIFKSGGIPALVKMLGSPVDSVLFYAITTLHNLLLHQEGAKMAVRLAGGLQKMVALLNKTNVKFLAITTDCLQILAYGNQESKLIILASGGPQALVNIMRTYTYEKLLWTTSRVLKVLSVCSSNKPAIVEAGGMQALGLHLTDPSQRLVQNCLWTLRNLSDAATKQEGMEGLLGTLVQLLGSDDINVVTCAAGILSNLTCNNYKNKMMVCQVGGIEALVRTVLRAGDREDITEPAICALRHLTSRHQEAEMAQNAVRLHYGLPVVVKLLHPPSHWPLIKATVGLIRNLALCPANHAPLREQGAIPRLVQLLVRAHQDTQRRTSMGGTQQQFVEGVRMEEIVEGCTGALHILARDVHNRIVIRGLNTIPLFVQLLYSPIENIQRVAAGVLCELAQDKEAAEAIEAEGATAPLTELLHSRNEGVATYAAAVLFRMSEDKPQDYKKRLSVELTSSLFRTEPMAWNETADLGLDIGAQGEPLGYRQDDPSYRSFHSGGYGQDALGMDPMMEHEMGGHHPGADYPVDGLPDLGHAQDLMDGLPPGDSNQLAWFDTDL

CHI Log D procedure = type: physicochemical; conditions: pH 7.4
[2] = fluorescence polarization, read-out: beta-Catenin FP IC50

IC50 [1, 2] [µM] | IC50 ([1]; read-out: FP EC50) [µM] | CHI Log D (CHI Log D procedure) | SMILES
0.043 | 0.043 | 2.341 | CC(=O)N1CCC[C@]12CC=CCCCC1(CCCC=CCCCCCC[C@@](C)(C(=O)N[C@@H](Cc3ccccc3)C(=O)N[C@@H](Cc3csc4ccccc34)C(=O)N[C@@H](CCC(N)=O)C(N)=O)NC(=O)[C@H](CCC(N)=O)NC(=O)[C@H](Cc3ccccc3)NC(=O)[C@H](C)NC(=O)[C@H](C)NC(=O)[C@H](CC(=O)O)NC(=O)[C@H](CC(=O)O)NC1=O)NC(=O)[C@H](CC(C)C)NC(=O)[C@H](CC(=O)O)NC2=O (stereo partly drawn) [I-559, Ac-PL3-Asp-Leu-B5-Asp-Asp-Ala-Ala-Phe-Gln-S8-Phe-BztA-Gln-NH2]
0.081 | 0.081 | 2.391 | CC(=O)N1CCC[C@]12CC=CCCCC1(CCCC=CCCCCCC[C@@](C)(C(=O)N[C@@H](Cc3ccccc3)C(=O)N[C@@H](Cc3csc4ccccc34)C(=O)N[C@@H](Cc3c[nH]cn3)C(N)=O)NC(=O)[C@H](CCC(N)=O)NC(=O)[C@H](Cc3ccccc3)NC(=O)[C@H](C)NC(=O)[C@H](C)NC(=O)[C@H](CC(=O)O)NC(=O)[C@H](CC(=O)O)NC1=O)NC(=O)[C@H](CC(C)C)NC(=O)[C@H](CC(=O)O)NC2=O (stereo partly drawn) [I-560, Ac-PL3-Asp-Leu-B5-Asp-Asp-Ala-Ala-Phe-Gln-S8-Phe-BztA-His-NH2]
0.051 | 0.051 | 2.269 | CC(=O)N1CCC[C@]12CC=CCCCC1(CCCC=CCCCCCC[C@@](C)(C(=O)N[C@@H](Cc3ccccc3)C(=O)N[C@@H](Cc3csc4ccccc34)C(=O)N[C@@H](CCC(N)=O)C(N)=O)NC(=O)[C@H](CC(N)=O)NC(=O)[C@H](Cc3ccccc3)NC(=O)[C@H](C)NC(=O)[C@H](C)NC(=O)[C@H](CC(=O)O)NC(=O)[C@H](CC(=O)O)NC1=O)NC(=O)[C@H](CC(C)C)NC(=O)[C@H](CC(=O)O)NC2=O (stereo partly drawn) [I-562, Ac-PL3-Asp-Leu-B5-Asp-Asp-Ala-Ala-Phe-Asn-S8-Phe-BztA-Gln-NH2]
0.076 | 0.076 | 2.175 | CC(=O)N1CCC[C@]12CC=CCCCC1(CCCC=CCCCCCC[C@@](C)(C(=O)N[C@@H](Cc3ccccc3)C(=O)N[C@@H](Cc3csc4ccccc34)C(=O)N[C@@H](CCC(N)=O)C(N)=O)NC(=O)[C@H](CC(N)=O)NC(=O)[C@H](Cc3ccccc3)NC(=O)[C@H](C)NC(=O)[C@H](C)NC(=O)[C@H](CC(=O)O)NC(=O)[C@H](CC(=O)O)NC1=O)NC(=O)[C@H](C(C)C)NC(=O)[C@H](CC(=O)O)NC2=O (stereo partly drawn) [I-566, Ac-PL3-Asp-Val-B5-Asp-Asp-Ala-Ala-Phe-Asn-S8-Phe-BztA-Gln-NH2]
0.073 | 0.073 | 2.158 | CC[C@@H]1NC(=O)[C@H](CC(=O)O)NC(=O)[C@]2(CC=CCCCC3(CCCC=CCCCCCC[C@@](C)(C(=O)N[C@@H](Cc4ccccc4)C(=O)N[C@@H](Cc4csc5ccccc45)C(=O)N[C@@H](CCC(N)=O)C(N)=O)NC(=O)[C@H](CCC(N)=O)NC(=O)[C@H](Cc4ccccc4)NC(=O)[C@H](C)NC(=O)[C@H](C)NC(=O)[C@H](CCC(=O)O)NC(=O)[C@H](CC(=O)O)NC3=O)NC1=O)CCCN2C(C)=O (stereo partly drawn) [I-568, Ac-PL3-Asp-Abu-B5-Asp-Glu-Ala-Ala-Phe-Gln-S8-Phe-BztA-Gln-NH2]
0.056 | 0.056 | 2.219 | CC[C@@H]1NC(=O)[C@H](CC(=O)O)NC(=O)[C@]2(CC=CCCCC3(CCCC=CCCCCCC[C@@](C)(C(=O)N[C@@H](Cc4ccccc4)C(=O)N[C@@H](Cc4csc5ccccc45)C(=O)N[C@@H](Cc4c[nH]cn4)C(N)=O)NC(=O)[C@H](CCC(N)=O)NC(=O)[C@H](Cc4ccccc4)NC(=O)[C@H](C)NC(=O)[C@H](C)NC(=O)[C@H](CCC(=O)O)NC(=O)[C@H](CC(=O)O)NC3=O)NC1=O)CCCN2C(C)=O (stereo partly drawn) [I-570, Ac-PL3-Asp-Abu-B5-Asp-Glu-Ala-Ala-Phe-Gln-S8-Phe-BztA-His-NH2]
0.073 | 0.073 | 2.064 | CC[C@@H]1NC(=O)[C@H](CC(=O)O)NC(=O)[C@]2(CC=CCCCC3(CCCC=CCCCCCC[C@@](C)(C(=O)N[C@@H](Cc4ccccc4)C(=O)N[C@@H](Cc4csc5ccccc45)C(=O)N[C@@H](CCC(N)=O)C(N)=O)NC(=O)[C@H](CC(N)=O)NC(=O)[C@H](Cc4ccccc4)NC(=O)[C@H](C)NC(=O)[C@H](C)NC(=O)[C@H](CC(=O)O)NC(=O)[C@H](CC(=O)O)NC3=O)NC1=O)CCCN2C(C)=O (stereo partly drawn) [I-572, Ac-PL3-Asp-Abu-B5-Asp-Asp-Ala-Ala-Phe-Asn-S8-Phe-BztA-Gln-NH2]
0.112 | 0.112 | 2.458 | CC[C@H](C)[C@@H]1NC(=O)[C@H](CC(=O)O)NC(=O)[C@]2(CC=CCCCC3(CCCC=CCCCCCC[C@@](C)(C(=O)N[C@@H](Cc4ccccc4)C(=O)N[C@@H](Cc4csc5ccccc45)C(=O)N[C@@H](Cc4c[nH]cn4)C(N)=O)NC(=O)[C@H](CCC(N)=O)NC(=O)[C@H](Cc4ccccc4)NC(=O)[C@H](C)NC(=O)[C@H](C)NC(=O)[C@H](CC(=O)O)NC(=O)[C@H](CC(=O)O)NC3=O)NC1=O)CCCN2C(C)=O (stereo partly drawn) [I-581, Ac-PL3-Asp-Ile-B5-Asp-Asp-Ala-Ala-Phe-Gln-S8-Phe-BztA-His-NH2]
0.069 | 0.069 | 2.563 | CC(=O)N1CCC[C@]12CC=CCCCC1(CCCC=CCCCCCC[C@@](C)(C(=O)N[C@@H](Cc3ccccc3)C(=O)N[C@@H](Cc3csc4ccccc34)C(=O)N[C@@H](Cc3c[nH]cn3)C(N)=O)NC(=O)[C@H](CC(N)=O)NC(=O)[C@H](Cc3ccccc3)NC(=O)[C@H](C)NC(=O)[C@H](C)NC(=O)[C@H](CC(=O)O)NC(=O)[C@H](CC(=O)O)NC1=O)NC(=O)[C@H](CCC(C)C)NC(=O)[C@H](CC(=O)O)NC2=O (stereo partly drawn) [I-583, Ac-PL3-Asp-hLeu-B5-Asp-Asp-Ala-Ala-Phe-Asn-S8-Phe-BztA-His-NH2]

SMILES | IC50 [1, 2] [µM] | IC50 ([1]; read-out: FP EC50) [µM] | CHI Log D (CHI Log D procedure)
CC(=O)N1CCC[C@]12CC=CCCCC1(CCCC=CCCCCCC[C@@](C)(C(=O)N[C@@H](Cc3ccccc3)C(=O)N[C@@H](Cc3csc4ccccc34)C(=O)N[C@@H](CCC(N)=O)C(N)=O)NC(=O)[C@H](CCC(N)=O)NC(=O)[C@H](Cc3ccccc3)NC(=O)[C@H](C)NC(=O)[C@H](C)NC(=O)[C@H](CCC(=O)O)NC(=O)[C@H](CC(=O)O)NC1=O)NC(=O)[C@H](CCCCNC(=O)CN=[N+]=[N-])NC(=O)[C@H](CC(=O)O)NC2=O (stereo partly drawn) [I-589, Ac-PL3-Asp-[AzAc]Lys-B5-Asp-Glu-Ala-Ala-Phe-Gln-S8-Phe-BztA-Gln-NH2] | – | 0.048 | 2.119
CC(=O)N1CCC[C@]12CC=CCCCC1(CCCC=CCCCCCC[C@@](C)(C(=O)N[C@@H](Cc3ccccc3)C(=O)N[C@@H](Cc3csc4ccccc34)C(=O)N[C@@H](CCC(N)=O)C(N)=O)NC(=O)[C@H](CCC(N)=O)NC(=O)[C@H](Cc3ccccc3)NC(=O)[C@H](C)NC(=O)[C@H](C)NC(=O)[C@H](CCC(=O)O)NC(=O)[C@H](CC(=O)O)NC1=O)NC(=O)[C@H](CCCCNC(=O)CN=[N+]=[N-])NC(=O)[C@H](CC(=O)O)NC2=O (stereo partly drawn) [I-590, Ac-PL3-Asp-[AzAc]Lys-B5-Asp-Glu-Ala-Ala-Phe-Gln-S8-Phe-BztA-Gln-NH2] | – | 0.045 | 2.152
